Test results taken from PubChem BioAssay AID1919006 (Molecular Pharmacology Branch, DTP, NCI, 2023).
Each block holds one compound with its values, some of them ahead of it.

Test system: 885512-296-R-J2-PDC complex spheroid growth, % test/control
Assay: Anticancer human tumor 885512-296-R-J2-PDC patient-derived breast carcinoma cell line growth inhibition [AhR]
Conditions: for IC50: curve of first compound; for viability, T/C: stronger effect = lower value
In short: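 Complex tumor spheroids co-cultured with HUVEC and human MSC stroma; AhR antagonists tested in combination with standard-of-care and investigational agents. Top concentration at or near clinical Cmax (else 10 microM), half-log dilutions; growth expressed as percent test/control.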

[1] = second compound 0.1 µM, first compound 0.000949 µM
[2] = second compound 0.1 µM, first compound 0.003 µM
[3] = second compound 0.1 µM, first compound 0.00949 µM
[4] = second compound 0.1 µM, first compound 0.03 µM
[5] = second compound 0.1 µM, first compound 0.0949 µM
[6] = second compound 0.1 µM, first compound 0.3 µM
[7] = second compound 0.316 µM, first compound 0.000949 µM
[8] = second compound 0.316 µM, first compound 0.003 µM
[9] = second compound 0.316 µM, first compound 0.00949 µM
[10] = second compound 0.316 µM, first compound 0.03 µM
[11] = second compound 0.316 µM, first compound 0.0949 µM
[12] = second compound 0.316 µM, first compound 0.3 µM
[13] = second compound 1 µM, first compound 0.000949 µM
[14] = second compound 1 µM, first compound 0.003 µM
[15] = second compound 1 µM, first compound 0.00949 µM
[16] = second compound 1 µM, first compound 0.03 µM
[17] = second compound 1 µM, first compound 0.0949 µM
[18] = second compound 1 µM, first compound 0.3 µM
[19] = second compound 3.16 µM, first compound 0.000949 µM
[20] = second compound 3.16 µM, first compound 0.003 µM
[21] = second compound 3.16 µM, first compound 0.00949 µM
[22] = second compound 3.16 µM, first compound 0.03 µM
[23] = second compound 3.16 µM, first compound 0.0949 µM
[24] = second compound 3.16 µM, first compound 0.3 µM
[25] = second compound 10 µM, first compound 0.000949 µM
[26] = second compound 10 µM, first compound 0.003 µM
[27] = second compound 10 µM, first compound 0.00949 µM
[28] = second compound 10 µM, first compound 0.03 µM
[29] = second compound 10 µM, first compound 0.0949 µM
[30] = second compound 10 µM, first compound 0.3 µM
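Also: spheroids exposed to compounds for seven days.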

IC50 (second compound 0.1 µM): 6.75 nM | IC50 (second compound 0.316 µM): 6.48 nM | IC50 (second compound 1 µM): 5.6 nM | IC50 (second compound 3.16 µM): 3.63 nM | IC50 (second compound 10 µM): < 0.949 nM
SMILES: CC(C)CC(NC(=O)C(Cc1ccccc1)NC(=O)c1cnccn1)B(O)O (stereo not given) + Cc1cncc(-c2nc(NCCc3c[nH]c4ccccc34)c3ncn(C(C)C)c3n2)c1
viability, T/C [1]: 112% | viability, T/C [2]: 114% | viability, T/C [3]: 23.6% | viability, T/C [4]: 1.75% | viability, T/C [5]: 0.64% | viability, T/C [6]: 0.17% | viability, T/C [7]: 103% | viability, T/C [8]: 99% | viability, T/C [9]: 25.7% | viability, T/C [10]: 1.08% | viability, T/C [11]: 0.32% | viability, T/C [12]: 0.14% | viability, T/C [13]: 79.2% | viability, T/C [14]: 87.7% | viability, T/C [15]: 21.8% | viability, T/C [16]: 0.9% | viability, T/C [17]: 0.08% | viability, T/C [18]: 0.13% | viability, T/C [19]: 52.5% | viability, T/C [20]: 61% | viability, T/C [21]: 16.3% | viability, T/C [22]: 0.59% | viability, T/C [23]: 0.07% | viability, T/C [24]: 0.16% | viability, T/C [25]: 16.7% | viability, T/C [26]: 16.9% | viability, T/C [27]: 1.8% | viability, T/C [28]: 0.43% | viability, T/C [29]: 0.16% | viability, T/C [30]: 0.22%

IC50 (second compound 0.1 µM): < 0.949 nM | IC50 (second compound 0.316 µM): < 0.949 nM | IC50 (second compound 1 µM): < 0.949 nM | IC50 (second compound 3.16 µM): < 0.949 nM | IC50 (second compound 10 µM): < 0.949 nM
SMILES: CCc1c2c(nc3ccc(O)cc13)-c1cc3c(c(=O)n1C2)COC(=O)[C@]3(O)CC + Cc1cncc(-c2nc(NCCc3c[nH]c4ccccc34)c3ncn(C(C)C)c3n2)c1
viability, T/C [1]: 17.1% | viability, T/C [2]: 6.62% | viability, T/C [3]: 6.47% | viability, T/C [4]: 4.7% | viability, T/C [5]: 3.05% | viability, T/C [6]: 1.25% | viability, T/C [7]: 13.4% | viability, T/C [8]: 8.06% | viability, T/C [9]: 6.14% | viability, T/C [10]: 3.21% | viability, T/C [11]: 2.78% | viability, T/C [12]: 2.11% | viability, T/C [13]: 13.7% | viability, T/C [14]: 10.2% | viability, T/C [15]: 6.69% | viability, T/C [16]: 3.66% | viability, T/C [17]: 3.03% | viability, T/C [18]: 1.71% | viability, T/C [19]: 14.3% | viability, T/C [20]: 9.78% | viability, T/C [21]: 8.43% | viability, T/C [22]: 4.39% | viability, T/C [23]: 2.48% | viability, T/C [24]: 2.2% | viability, T/C [25]: 15.4% | viability, T/C [26]: 10.6% | viability, T/C [27]: 5.11% | viability, T/C [28]: 2.46% | viability, T/C [29]: 1.12% | viability, T/C [30]: 0.78%

IC50 (second compound 0.1 µM): 31.6 nM | IC50 (second compound 0.316 µM): 48.3 nM | IC50 (second compound 1 µM): < 31.6 nM | IC50 (second compound 3.16 µM): < 31.6 nM | IC50 (second compound 10 µM): < 31.6 nM
SMILES: COc1cc(Nc2ncc3c(n2)-c2ccc(Cl)cc2C(c2c(F)cccc2OC)=NC3)ccc1C(=O)O + Cc1cncc(-c2nc(NCCc3c[nH]c4ccccc34)c3ncn(C(C)C)c3n2)c1
viability, T/C (second compound 0.1 µM, first compound 0.0316 µM): 49.5% | viability, T/C (second compound 0.1 µM, first compound 0.1 µM): 46.1% | viability, T/C (second compound 0.1 µM, first compound 0.316 µM): 47.6% | viability, T/C (second compound 0.1 µM, first compound 1 µM): 50.6% | viability, T/C (second compound 0.1 µM, first compound 3.16 µM): 30.2% | viability, T/C (second compound 0.1 µM, first compound 10 µM): 32% | viability, T/C (second compound 0.316 µM, first compound 0.0316 µM): 53.3% | viability, T/C (second compound 0.316 µM, first compound 0.1 µM): 43.6% | viability, T/C (second compound 0.316 µM, first compound 0.316 µM): 48% | viability, T/C (second compound 0.316 µM, first compound 1 µM): 42.4% | viability, T/C (second compound 0.316 µM, first compound 3.16 µM): 45.8% | viability, T/C (second compound 0.316 µM, first compound 10 µM): 34.2% | viability, T/C (second compound 1 µM, first compound 0.0316 µM): 44.5% | viability, T/C (second compound 1 µM, first compound 0.1 µM): 37.8% | viability, T/C (second compound 1 µM, first compound 0.316 µM): 46% | viability, T/C (second compound 1 µM, first compound 1 µM): 41.7% | viability, T/C (second compound 1 µM, first compound 3.16 µM): 39.7% | viability, T/C (second compound 1 µM, first compound 10 µM): 39.5% | viability, T/C (second compound 3.16 µM, first compound 0.0316 µM): 32.6% | viability, T/C (second compound 3.16 µM, first compound 0.1 µM): 35.6% | viability, T/C (second compound 3.16 µM, first compound 0.316 µM): 33.6% | viability, T/C (second compound 3.16 µM, first compound 1 µM): 34% | viability, T/C (second compound 3.16 µM, first compound 3.16 µM): 32.2% | viability, T/C (second compound 3.16 µM, first compound 10 µM): 31.2% | viability, T/C (second compound 10 µM, first compound 0.0316 µM): 16.2% | viability, T/C (second compound 10 µM, first compound 0.1 µM): 12.8% | viability, T/C (second compound 10 µM, first compound 0.316 µM): 13.3% | viability, T/C (second compound 10 µM, first compound 1 µM): 14.8% | viability, T/C (second compound 10 µM, first compound 3.16 µM): 17.2% | viability, T/C (second compound 10 µM, first compound 10 µM): 17.6%
